Test results taken from patent US8715947B2, “Inhibition of the interaction between 5T4 oncofoetal glycoproteins and CXC chemokine receptors as a method of identifying chemotaxis inhibitors” (Cancer Research Technology Limited, priority 2009, dated 2014).
Entries after “also recorded” stand apart in the source; their conditions may differ.

Columns and labels:
[1] = system: WT and 5T4KO ES cells; assay: CXCL10 chemotaxis of ES cells; type: cell-based, mouse; details: 100 ng/well CXCL10
[2] = system: ERK phosphorylation; assay: ERK phosphorylation in MEFs by Western blot; type: cell-based, mouse; details: 50 μM PD98059, 50 μM LY294002 or 10 μM AMD3100; for increase in ERK phosphorylation in response to CXCL12 stimulation: WT MEFs; for increase in ERK1/2 phosphorylation in response to PMA stimulation: WT and 5T4KO MEFs
Procedure: Western blots were carried out using a BioRad Mini-PROTEAN Tetra (Thermo Fisher) supplemented with protease and phosphatase inhibitor cocktails (Thermo Fisher). RIPA buffer (50 mM Tris-Cl pH 7.4, 150 mM NaCl, 1% NP40, 0.25% Na-deoxycholate, 1 mM PMSF and protease and phosphatase inhibitor cocktail) was used as an alternative method of cell lysis. […] Other primary antibodies used were ERK1/2, phospho-ERK1/2 (Thr202/Tyr204/Thr185/Tyr187), AKT and phospho-AKT (Thr308) (Cell Signalling Technology) at 1:1000. Following secondary antibody labelling using appropriate HRP conjugates (AbSerotec) hybridizing bands were detected using SuperSignal West Dura (Thermo Fischer). For immunoprecipitation experiments cells were lysed in M-PER (Thermo Fischer) according to manufacturer's instructions and enriched for the membrane fraction on a 45% sucrose gradient by ultracentrifugation. 100 μg of the membrane enriched fraction was incubated with 1 μg of rabbit polyclonal anti-CXCR4 (Abcam) or 1 μg of mouse anti-monoclonal h5T4 or appropriate irrelevant control antibodies for 1 hour at room temperature. A 50% slurry of Protein G beads (Amersham) was then added and incubated for 1 hour at room temperature. Beads were subsequently washed 7 times with 1 ml PBS+0.1% Triton X-100, and then resuspended in PAGE loading buffer (Thermo Fisher), boiled for 3 minutes and loaded onto 4-15% gradient gel and processed as described for Westerns above. Gels were run in Lamelli buffer (25 mM Tris-base, 192 mM glycine, 0.1% SDS). Antibodies to CXCR7 were used in western blot analysis of PAGE separated MEF cells solubilised 1%.

[3] = biological target: T1, CXCR4 (Mus musculus, UniProt P70658); details: in vivo; cited from earlier work
[4] = biological target: T1, CXCR4; details: in vivo; cited from earlier work; remark: listed apart in the source
[5] = system: WT-ES cells; assay: CXCL12 chemotaxis of WT-ES cells in transwell chambers; type: cell-based, mouse
Procedure: (§1) Chemotaxis was assessed using transwell chambers as previously described for cellular motility assays [16; the contents of which are expressly incorporated herein in their entirety] in the presence or absence of the chemokine CXCL12 (R&D systems), at a concentration of 10 ng/well for ES cell experiments, and 30 ng/well for all others. Inhibition studies were performed in the presence of 10 μM Diprotin A (Sigma) for CD26, 10 μM AMD3100 (Sigma) for CXCR4 or 10 μg/well mouse anti-CXCL12 (R&D systems) or Pertussis Toxin (Sigma, 10 ng/ml). For m5T4 specific mAb inhibition of chemotaxis or control Ig; antibodies were premixed with 50,000 differentiating WT-ES or MEF cells/ml and added to the transwell chambers as above. CXCL16 (R&D 10 ng/ml), the ligand for CXCR6 and CXCL10 (R&D 100 ng/ml), a ligand for CXCR3 were used to assess chemotaxis in undifferentiated and/or differentiating WT and 5T4KO ES cells.

[6] = system: CAOV3; assay: CXCL12 chemotaxis of CAOV3 ovarian carcinoma cells; type: cell-based, human; details: 10 μM diprotin A, 10 ng/well CXCL12
Procedure: as §1, with “at a concentration of 10 ng/well for ES cell experiments, and 30 ng/well for all others.” left out

[7] = system: SKOV3; assay: CXCL12 chemotaxis of SKOV3 ovarian carcinoma cells; type: cell-based, human; details: 10 μM diprotin A, 10 ng/well CXCL12
Procedure: as §1, with “at a concentration of 10 ng/well for ES cell experiments, and 30 ng/well for all others.” left out
A series of 5T4 constructs were built for this study and cloned into pCMVα, and the retroviral vector SFβ91 [32] that we had previously inserted the cDNA cassette eGFP under the transcriptional control of an IRES (Clonetech). […] A multiplicity of 30 infectious units per cell led to 100% of cells expressing m5T4 or h5T4 or GFP at 48 hours as assessed by FACS and when other biological assessments were made. […] After 3 days, GFP positive cells were FACS sorted and assessed for 5T4 expression and chemotaxis to CXCL12.

[8] = system: 5T4KO ES cells; assay: CXCL12 chemotaxis of 5T4KO ES cells in transwell chambers; type: cell-based, mouse; details: undifferentiated or differentiating 5T4KO ES cells; 10 μM
Procedure: as §1

[9] = system: JEG-3; assay: CXCL12 chemotaxis of JEG-3 choriocarcinoma cells; type: cell-based, human; details: 10 μM diprotin A, 30 ng/well CXCL12
Procedure: as §1

[10] = system: primary murine embryonic fibroblasts; assay: Immunofluorescence pattern of 5T4 and CXCR4 in primary murine embryonic fibroblasts after cytoskeleton, Golgi or microtubule disruption; type: cell-based, mouse; details: for cell surface expression and colocalisation of 5T4 and CXCR4 versus untreated controls: 985 nM cytochalasin D or 3.6 μM brefeldin A; for cell surface expression and colocalisation of 5T4 and CXCR4 after washout: one hour after washout
Procedure: Immunofluorescence In Situ. These studies were performed using methods described previously (39), with cells grown on 24 well glass bottomed plates, (Iwaki, supplied through Jencons) for ES cells the wells were pre coated with 0.1% gelatine. Primary antibodies used were rabbit anti-CXCR4, (5 μg/ml) (Abcam), rat-anti-DPIV (5 μg/ml), (R&D), mAb anti-human 5T4 (10 μg/ml,), mAb anti-m5T4, 9A7 (20 μg/ml), B3F1 (5 μg/ml), rabbit anti-CXCR7 (AbCam, 5 μg/ml), rat mAb anti-CXCR6 (R&D, 5 μg/ml), rat mAb anti-CXCR3 (R&D, 5 μg/ml), Alexa Fluor 488 mouse anti-myc tag clone 4A6 (Millipore) or appropriate isotype controls. Secondary detection was performed by incubation for 1 hour at 4° C. with species or IgG sub-class specific Alexa Fluor conjugated secondary antibodies (Invitrogen) (6 μg/ml) as appropriate for multiple antigen detection. Labelling of the endoplasmic reticulum and Golgi apparatus was performed using NBD C6-Ceramide or Endotracker, (Invitrogen, Molecular Probes) as per manufacturer's instructions. […]. F-Actin was labeled using Phaloidin-633 Alexa Fluor (Invitrogen). Microtubules were visualised by murine IgG recognizing β-tubulin (Cancer Research UK). Cells were imaged on a Zeiss Axiovert 200M with a plan-fluar ×100 1.45NA objective lens and a Roper Cascade EMCCD 512B camera. Illumination was achieved using a 300W Xenon system, (Sutter) which presented the system as an even field of illumination in addition to the appropriate neutral density and Schott filters to modulate the light source. Wavelength selection was achieved using external filter wheels, (Applied Scientific Instrumentation) and the ETSedat set, (Chroma). Data sets were captured with an axial resolution of 100 nm using the MS-2000 stage (Applied Scientific Instrumentation) and a lateral resolution of 0.1645 microns per pixel. The system was full controlled and automated via the FRAP-AI software, (MAG Biosystems/Metamorph). All of the data sets were deconvolved using Huygens (Scientific Volume Imaging) after which visualization and analysis was carried out using Imaris, (Bitplane). Colocalisation was assessed by analysis of the deconvolved images utilising ImarisColoc software (Bitplane) in manual mode. A 2D scatter plot showing intensity pairs in the image was thresholded to include only colocalized points in the three dimensional volume.
Primary murine embryonic fibroblasts were assessed for their pattern of 5T4 and CXCR4 expression by immunofluorescence following disruption of the cytoskeleton, Golgi or microtubules for 24 hours with cytochalasin D, brefeldin A or nocodazole respectively. Cytoskeleton, Golgi and microtubule disruption was determined by immunofluorescence with AlexaFluor 633 conjugated phalloidin, BODIPY labeled NBD C6 ceramide and anti-tubulin antibodies respectively. […] Clearly plasma membrane detection of co-localized 5T4/CXCR4 molecules is dependent on microtubules and the molecules are not obligatorily associated at the Golgi.

T1 sequence (P70658 whole entry): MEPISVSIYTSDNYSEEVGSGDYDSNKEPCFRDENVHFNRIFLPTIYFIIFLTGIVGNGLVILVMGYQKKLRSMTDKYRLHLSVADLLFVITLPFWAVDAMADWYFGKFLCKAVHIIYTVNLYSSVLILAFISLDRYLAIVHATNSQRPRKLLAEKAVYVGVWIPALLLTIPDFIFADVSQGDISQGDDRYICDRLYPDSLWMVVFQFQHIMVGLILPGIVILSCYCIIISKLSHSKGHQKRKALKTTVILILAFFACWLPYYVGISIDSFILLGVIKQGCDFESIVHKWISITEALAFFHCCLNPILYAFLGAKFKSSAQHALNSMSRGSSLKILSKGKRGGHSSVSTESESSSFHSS

pertussis toxin
CXCL10 related chemotaxis with Gi protein inhibitor ([1]; WT and KO differentiating ES cells, 10 ng/ml): inhibits CXCL10 related chemotaxis

COc1cccc(-c2cc(=O)c3ccccc3o2)c1N [PD98059]
increase in ERK phosphorylation in response to CXCL12 stimulation [2]: prevented | increase in ERK1/2 phosphorylation in response to PMA stimulation [2]: blocked by MEK1 inhibition

c1ccc(CNCc2ccc(CN3CCCNCCNCCCNCC3)cc2)nc1 [AMD3465]
pulmonary granuloma formation [3]: eliminates

c1cc(CN2CCCNCCNCCCNCC2)ccc1CN1CCCNCCNCCCNCC1 [AMD3100]
increase in ERK phosphorylation in response to CXCL12 stimulation [2]: prevented | increase in ERK1/2 phosphorylation in response to PMA stimulation [2]: independent of both CXCR4 and PI3K activity | allergic lung inflammation and airway hyperreactivity [4]: attenuates | chemotaxis to CXCL12 with CXCR4 inhibitor ([5]; differentiating WT-ES cells, 2 hr pre-incubation with 10 μM): blocked | chemotaxis to CXCL12 with CXCR4 inhibitor ([5]; undifferentiated WT-ES cells, 10 μM): no effect

CC[C@H](C)[C@H](N)C(=O)N1CCC[C@H]1C(=O)N[C@H](C(=O)O)[C@@H](C)CC [diprotin A]
CXCL12 chemotaxis with CD26 inhibitor [6]: further enhanced | chemotaxis towards CXCL10 with CD26 inhibitor ([1]; undifferentiated ES cells, 10 μM): acquire increased chemotaxis towards CXCL10 | CXCL12 chemotaxis with CD26 inhibitor [7]: further enhanced | chemotactic response to CXCL12 with CD26 inhibitor [8]: did not restore chemotactic behaviour; also recorded: no change in chemotactic response | CXCL12-mediated chemotaxis with CD26 inhibitor [9]: only evident in the presence

C[C@H]1CCC/C=C/[C@@H]2C[C@H](O)C[C@H]2[C@H](O)/C=C/C(=O)O1 [brefeldin A]
cell surface expression and colocalisation of 5T4 and CXCR4 versus untreated controls ([10]; 24 hours): reduced levels of cell surface expression of both antigens | cell surface expression and colocalisation of 5T4 and CXCR4 after washout [10]: returned to normal levels; also recorded: returned to levels with marked cell surface colocalisation similar to that of controls

COC(=O)Nc1nc2ccc(C(=O)c3cccs3)cc2[nH]1 [nocodazole]
cell surface detection of 5T4 ([10]; 24 hours, 332 nM nocodazole): remained detectable at the cell surface albeit at a diminished level; also recorded: still detectable at the cell surface albeit at a diminished level | cell surface detection of CXCR4 ([10]; 24 hours, 332 nM nocodazole): no cell surface detection of CXCR4 | cell surface expression and colocalisation of 5T4 and CXCR4 after washout [10]: both antigens were detectable at the cell surface with marked colocalisation similar to controls

C=C1[C@@H](C)[C@H]2[C@H](Cc3ccccc3)NC(=O)[C@]23[C@H](OC(C)=O)/C=C/[C@@](C)(O)C(=O)[C@@H](C)C/C=C/[C@H]3[C@@H]1O [cytochalasin D]
polymerized actin filaments (phalloidin immunofluorescence) ([10]; 24 hours treatment, 985 nM cytochalasin D): no polymerized actin filaments were detectable | cell surface expression and colocalisation of 5T4 and CXCR4 versus untreated controls ([10]; 24 hours): no detectable differences
